Measurements: ChEMBL document CHEMBL4359815, “Design, synthesis, antitumor activities and biological studies of novel diaryl substituted fused heterocycles as dual ligands targeting tubulin and katanin” (Eur J Med Chem, 2019)
The source made the active and inactive calls. No cut-off for these calls is given here.

Assays:
[1] = Apparent volume of distribution in ICR mouse at 50 mg/kg, ip after 0.08 to 24 hrs by HPLC-MS/MS analysis; assay type: ADME, organism-based; conditions: in vivo
A549 [2] = assay: Cell cycle arrest in human A549 cells assessed as accumulation of cells at G2/M phase at 0.5 to 2 uM after 24 hrs by RNase A/propidium iodide staining-based flow cytometric analysis; assay type: functional
A549 [3] = assay: Induction of apoptosis in human A549 cells assessed as increase in p53 expression level at 2 to 8 uM after 48 hrs by immunoblotting analysis; assay type: functional, cell-based
A549 [4] = assay: Induction of apoptosis in human A549 cells assessed as PARP cleavage at 2 to 8 uM after 48 hrs by immunoblotting analysis; assay type: functional, cell-based
A549 [5] = assay: Induction of apoptosis in human A549 cells assessed as viable cells at 1 uM after 48 hrs by Annexin-V/propidium iodide staining based flow cytometric method (reference value: 92.05%); assay type: functional; conditions: A549, 48 h, read-out: Activity
A549 [6] = assay: Antiproliferative activity against human A549 cells harboring katanin siRNA after 48 hrs by MTT assay; assay type: functional, cell-based; conditions: A549, 48 h
A549 [7] = assay: Induction of apoptosis in human A549 cells assessed as early apoptotic cells at 1 uM after 48 hrs by Annexin-V/propidium iodide staining based flow cytometric method (reference value: 0.51%); assay type: functional
HUVEC [8] = assay: Antiangiogenic activity in HUVEC assessed as inhibition of capillary like tube formation in matrigel at 0.2 uM after 24 hrs by matrigel-based inverted microscopic analysis; assay type: functional, cell-based; conditions: Homo sapiens
HUVEC [9] = assay: Cytotoxicity against HUVEC after 48 hrs by MTT assay; assay type: cell-based; conditions: Homo sapiens
A549 [10] = assay: Induction of apoptosis in human A549 cells assessed as early apoptotic cells at 2 uM after 48 hrs by Annexin-V/propidium iodide staining based flow cytometric method (reference value: 0.51%); assay type: functional
Tubulin (Homo sapiens) = Tubulin (Homo sapiens) (UniProt P68371+Q9H4B7+P0DPH7+P68366+Q13509+Q71U36+P04350+Q3ZCM7+P07437+P68363+Q9BQE3+Q6PEY2+Q13885+Q9BVA1+Q9BUF5); assay: Induction of tubulin depolymerization in human HeLa cells after 24 hrs by DAPI staining based fluorescence microscopic analysis; assay type: cell-based
HUVEC [11] = assay: Antiangiogenic activity in HUVEC assessed as inhibition of capillary like tube formation in matrigel at 0.4 uM after 24 hrs by matrigel-based inverted microscopic analysis relative to control; assay type: functional; conditions: Homo sapiens
A549 [12] = assay: Induction of apoptosis in human A549 cells assessed as late apoptotic cells at 1 uM after 48 hrs by Annexin-V/propidium iodide staining based flow cytometric method (reference value: 1.18%); assay type: functional
A549 [13] = assay: Induction of apoptosis in human A549 cells assessed as late apoptotic cells at 2 uM after 48 hrs by Annexin-V/propidium iodide staining based flow cytometric method (reference value: 1.18%); assay type: functional
A549 [14] = assay: Induction of apoptosis in human A549 cells assessed as necrotic cells at 2 uM after 48 hrs by Annexin-V/propidium iodide staining based flow cytometric method (reference value: 6.26%); assay type: functional
A549 [15] = assay: Induction of apoptosis in human A549 cells after 48 hrs by Annexin-V/propidium iodide staining based flow cytometric method; assay type: functional, cell-based
A549 [16] = assay: Cell cycle arrest in human A549 cells assessed as increase in histone 3 phosphorylation at 0.5 to 2 uM after 24 hrs by immunoblotting analysis; assay type: functional, cell-based
A549 [17] = assay: Inhibition of colony formation in human A549 cells after 48 hrs by crystal violet staining based assay; assay type: functional, cell-based
A549 [18] = assay: Induction of apoptosis in human A549 cells assessed as viable cells at 0.5 uM after 48 hrs by Annexin-V/propidium iodide staining based flow cytometric method (reference value: 92.05%); assay type: functional; conditions: A549, 48 h, read-out: Activity
HCT-116 = assay: Antiproliferative activity against human HCT116 cells assessed as reduction in cell viability after 48 hrs by MTT assay; assay type: functional, cell-based; conditions: HCT-116, 48 h
A549 [19] = assay: Cell cycle arrest in human A549 cells assessed as increase in p21 expression at 0.5 to 2 uM after 24 hrs by immunoblotting analysis; assay type: functional, cell-based
A549 [20] = assay: Antiproliferative activity against human A549 cells assessed as reduction in cell viability after 48 hrs by MTT assay; assay type: functional, cell-based; conditions: A549, 48 h
A2780 [21] = assay: Antitumour activity against human A2780 cells xenografted in Balb/c mouse assessed as reduction in tumour volume at 25 to 50 mg/kg, ip administered every other day by caliper method; assay type: functional, organism-based
[22] = Apparent oral clearance ICR mouse at 50 mg/kg, ip after 0.08 to 24 hrs by HPLC-MS/MS analysis; assay type: ADME, organism-based; conditions: in vivo
[23] = Cmax in ICR mouse at 50 mg/kg, ip after 0.08 to 24 hrs by HPLC-MS/MS analysis; assay type: ADME, organism-based; design: dose 50 mg/kg, route intraperitoneal; conditions: in vivo
Tubulin (Sus scrofa) = Tubulin (Sus scrofa) (UniProt P02554+P02550); assay: (§1) Inhibition of pig brain tubulin polymerization measured every 1 min for 25 mins by spectrophotometric method
Sequence of Tubulin (Sus scrofa) (P02550 whole entry, looked up): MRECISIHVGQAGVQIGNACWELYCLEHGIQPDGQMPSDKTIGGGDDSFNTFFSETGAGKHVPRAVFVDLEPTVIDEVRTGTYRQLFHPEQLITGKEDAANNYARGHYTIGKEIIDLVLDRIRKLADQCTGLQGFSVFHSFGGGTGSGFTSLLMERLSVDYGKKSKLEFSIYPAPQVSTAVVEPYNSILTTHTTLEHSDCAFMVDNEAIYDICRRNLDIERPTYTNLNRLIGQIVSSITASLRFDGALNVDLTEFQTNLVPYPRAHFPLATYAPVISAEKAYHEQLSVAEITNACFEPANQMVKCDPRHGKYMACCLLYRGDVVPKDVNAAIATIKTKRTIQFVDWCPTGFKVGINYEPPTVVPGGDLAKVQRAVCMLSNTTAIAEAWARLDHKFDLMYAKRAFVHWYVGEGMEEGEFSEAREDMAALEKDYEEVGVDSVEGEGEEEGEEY
Sequence of Tubulin (Sus scrofa) (P02554 whole entry, looked up): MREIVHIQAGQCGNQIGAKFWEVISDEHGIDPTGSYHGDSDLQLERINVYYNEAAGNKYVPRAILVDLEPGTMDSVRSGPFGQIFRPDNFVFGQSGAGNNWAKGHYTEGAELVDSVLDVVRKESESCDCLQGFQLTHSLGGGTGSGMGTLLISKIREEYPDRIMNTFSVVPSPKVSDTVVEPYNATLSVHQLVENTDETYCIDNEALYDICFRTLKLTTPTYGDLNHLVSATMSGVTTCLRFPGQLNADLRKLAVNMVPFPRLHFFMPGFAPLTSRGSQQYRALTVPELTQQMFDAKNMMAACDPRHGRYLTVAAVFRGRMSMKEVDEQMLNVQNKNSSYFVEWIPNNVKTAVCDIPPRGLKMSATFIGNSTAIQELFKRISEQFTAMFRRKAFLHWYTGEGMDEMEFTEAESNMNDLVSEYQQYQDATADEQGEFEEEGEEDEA

Tubulin = Tubulin (Sus scrofa, UniProt P02554+P02550); assay: as §1
[24] = AUC(0 to infinity) in ICR mouse at 50 mg/kg, ip after 0.08 to 24 hrs by HPLC-MS/MS analysis; assay type: ADME, organism-based; design: dose 50 mg/kg, time infinity, route intraperitoneal; conditions: in vivo
A2780 [25] = assay: Antiproliferative activity against human A2780 cells assessed as reduction in cell viability after 48 hrs by MTT assay; assay type: functional, cell-based; conditions: A2780, 48 h
[26] = AUC (0 to 24 hrs) in ICR mouse at 50 mg/kg, ip after 0.08 to 24 hrs by HPLC-MS/MS analysis; assay type: ADME, organism-based; design: time < 24 hr, dose 50 mg/kg, route intraperitoneal; conditions: in vivo
[27] = target: Katanin p60 ATPase-containing subunit A1 (Homo sapiens) (UniProt O75449); assay: Inhibition of Katanin p60 degradation in human A549 cells preincubated for 15 mins followed by compound addition in presence of cycloheximide by immunoblotting analysis; assay type: cell-based
Sequence of Katanin p60 ATPase-containing subunit A1 (Homo sapiens) (O75449 whole entry): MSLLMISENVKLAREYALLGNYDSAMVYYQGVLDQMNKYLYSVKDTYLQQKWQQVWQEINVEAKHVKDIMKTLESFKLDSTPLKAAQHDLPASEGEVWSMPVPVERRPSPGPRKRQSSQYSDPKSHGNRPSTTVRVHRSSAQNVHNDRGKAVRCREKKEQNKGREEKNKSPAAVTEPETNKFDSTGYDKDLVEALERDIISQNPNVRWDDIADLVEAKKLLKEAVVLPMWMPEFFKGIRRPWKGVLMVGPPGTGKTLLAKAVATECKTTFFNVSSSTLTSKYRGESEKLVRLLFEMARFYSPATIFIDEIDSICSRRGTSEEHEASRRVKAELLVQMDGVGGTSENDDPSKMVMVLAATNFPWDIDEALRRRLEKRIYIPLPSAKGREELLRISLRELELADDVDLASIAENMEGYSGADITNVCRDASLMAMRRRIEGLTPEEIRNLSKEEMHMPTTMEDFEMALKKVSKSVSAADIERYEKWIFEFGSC

A549 [28] = assay: Induction of apoptosis in human A549 cells assessed as early apoptotic cells at 0.5 uM after 48 hrs by Annexin-V/propidium iodide staining based flow cytometric method (reference value: 0.51%); assay type: functional
[29] = Toxicity in Balb/c mouse xenografted with human A2780 cells assessed effect on body weight at 25 to 50 mg/kg, ip administered every other day; assay type: organism-based; conditions: in vivo
A549 [30] = assay: Induction of apoptosis in human A549 cells assessed as increase in Bad expression level at 2 to 8 uM after 48 hrs by immunoblotting analysis; assay type: functional, cell-based
[31] = Tmax in ICR mouse at 50 mg/kg, ip after 0.08 to 24 hrs by HPLC-MS/MS analysis; assay type: ADME, organism-based; conditions: in vivo
A549 [32] = assay: Antiproliferative activity against human A549 cells harboring control siRNA after 48 hrs by MTT assay; assay type: functional, cell-based; conditions: A549, 48 h
[33] = Half life in ICR mouse at 50 mg/kg, ip after 0.08 to 24 hrs by HPLC-MS/MS analysis; assay type: ADME, organism-based; conditions: in vivo
A549 [34] = assay: Induction of apoptosis in human A549 cells assessed as necrotic cells at 1 uM after 48 hrs by Annexin-V/propidium iodide staining based flow cytometric method (reference value: 6.26%); assay type: functional
A549 [35] = assay: Induction of apoptosis in human A549 cells assessed as late apoptotic cells at 0.5 uM after 48 hrs by Annexin-V/propidium iodide staining based flow cytometric method (reference value: 1.18%); assay type: functional
HeLa = assay: Antiproliferative activity against human HeLa cells assessed as reduction in cell viability after 48 hrs by MTT assay; assay type: functional, cell-based
A549 [36] = assay: Induction of apoptosis in human A549 cells assessed as viable cells at 2 uM after 48 hrs by Annexin-V/propidium iodide staining based flow cytometric method (reference value: 92.05%); assay type: functional; conditions: A549, 48 h, read-out: Activity
A549 [37] = assay: Cell cycle arrest in human A549 cells after 24 hrs by RNase A/propidium iodide staining-based flow cytometric analysis; assay type: functional
A2780 [38] = assay: Antitumour activity against human A2780 cells xenografted in Balb/c mouse assessed as reduction in tumour weight at 25 to 50 mg/kg, ip administered every other day; assay type: functional, organism-based
[39] = MRT in ICR mouse at 50 mg/kg, ip after 0.08 to 24 hrs by HPLC-MS/MS analysis; assay type: ADME, organism-based; conditions: in vivo
A549 [40] = assay: Induction of apoptosis in human A549 cells assessed as necrotic cells at 0.5 uM after 48 hrs by Annexin-V/propidium iodide staining based flow cytometric method (reference value: 6.26%); assay type: functional
A549 [41] = assay: Cell cycle arrest in human A549 cells assessed as increase in cyclin B1 expression at 0.5 to 2 uM after 24 hrs by immunoblotting analysis; assay type: functional, cell-based
[42] = Binding affinity to human katanin by MST assay

COc1ccc(-c2cc3c([nH]c(=O)n3-c3cc(OC)c(OC)c(OC)c3)c(C(N)=O)n2)cc1O
Vd/F [1]: 4625.07 mL | inhibition (A549 [2]): Active | Activity (A549 [3]): Active | Activity (A549 [4]): Active | viability at 1 µM (A549 [5]): 65.1% | IC50 (A549 [6]): 1480 nM | Activity (A549 [7]): 15.85% | inhibition (HUVEC [8]): Active | IC50 (HUVEC [9]): > 10000 nM | Activity (A549 [10]): 36.48% | Activity (Tubulin (Homo sapiens)): Dose-dependent effect | inhibition at 0.4 µM (HUVEC [11]): 100% | Activity (A549 [12]): 8.69% | Activity (A549 [13]): 14.08% | Activity (A549 [14]): 7.2% | Activity (A549 [15]): Dose-dependent effect | Activity (A549 [16]): Active | inhibition (A549 [17]): Dose-dependent effect | viability at 0.5 µM (A549 [18]): 79.7% | IC50 (HCT-116): 170 nM | Activity (A549 [19]): Active | IC50 (A549 [20]): 400 nM | Activity (A2780 [21]): Active | CL/F [22]: 5.73 mL/min | Cmax [23]: 580 ng/mL | inhibition (Tubulin (Sus scrofa)): Dose-dependent effect | IC50 (Tubulin): 8400 nM | AUC(0-inf) [24]: 2950 ng·h/mL | IC50 (A2780 [25]): 210 nM | AUC(0-t) at 24 h [26]: 2630 ng·h/mL | inhibition [27]: inactive | Activity (A549 [28]): 7.51% | Activity [29]: Non-Toxic | Activity (A549 [30]): Active | Tmax [31]: 0.23 h | IC50 (A549 [32]): 340 nM | half-life [33]: 9.36 h | Activity (A549 [34]): 10.33% | Activity (A549 [35]): 5.43% | IC50 (HeLa): 250 nM | viability at 2 µM (A549 [36]): 42.2% | inhibition (A549 [37]): Dose-dependent effect | Activity (A2780 [38]): Active | MRT [39]: 8.39 h | Activity (A549 [40]): 7.34% | Activity (A549 [41]): Active | Kd [42]: 12700 nM
